Tests used:
Format in all cases: in vivo
[1] = system: Cabbage Looper (Trichoplusia ni, TRIPNI); test: Bioassay on Cabbage Looper (CL), 128-well diet tray assay; conditions: Trichoplusia ni; Species CL (Cabbage Looper); read-out: CL (Biological Results, rating)
Procedure, shortened: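 Using eight wells per molecule, artificial diet was dosed at 50 μg/cm^2 with compound in 90:10 acetone-water and dried before one to five second-instar larvae were added per well. Covered vented trays were kept at 25° C. with 14:10 light-dark for five to seven days, then per-well percent mortality was recorded and averaged.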

[2] = system: Yellow Fever Mosquito (Aedes aegypti, AEDSAE); test: Bioassay on Yellow Fever Mosquito (YFM), 96-well plate larval assay; conditions: Species YFM (Yellow Fever Mosquito)
Description: Certain molecules disclosed in this document were tested against YFM using procedures described in the following paragraph. In the reporting of the results, the “GPA & YFM Rating Table” was used (See Table Section).
Master plates containing 400 μg of a molecule dissolved in 100 μL of dimethyl sulfoxide (DMSO) (equivalent to a 4000 ppm solution) are used. A master plate of assembled molecules contains 15 μL per well. To this plate, 135 μL of a 90:10 water/acetone mixture is added to each well. A robot is programmed to dispense 15 μL aspirations from the master plate into an empty 96-well shallow plate (“daughter” plate). There are 6 reps (“daughter” plates) created per master. The created “daughter” plates are then immediately infested with YFM larvae.
The day before plates are to be treated, mosquito eggs are placed in Millipore water containing liver powder to begin hatching (4 g. into 400 mL). After the “daughter” plates are created using the robot, they are infested with 220 μL of the liver powder/larval mosquito mixture (about 1 day-old larvae). After plates are infested with mosquito larvae, a non-evaporative lid is used to cover the plate to reduce drying. Plates are held at room temperature for 3 days prior to grading. After 3 days, each well is observed and scored based on mortality. The results are indicated in the table entitled “Table ABC: Biological Results” (See Table Section).

[3] = system: Beet Armyworm (Spodoptera exigua, LAPHEG); test: Bioassay on Beet Armyworm (BAW), 128-well diet tray assay; conditions: Species BAW (Beet Armyworm), read-out: BAW (Biological Results, rating)
Procedure, shortened: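 Test molecule dissolved in acetone-water 90:10 is applied at 50 μg/cm^2 onto artificial diet and allowed to dry. Second instar larvae, one to five per well, are then added, and trays are vented and kept at 25° C. for five to seven days before mortality is scored.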

Q: `O=C(Nc1ccc(F)cc1F)c1cc(NC(=O)[C@H]2[C@H](c3cc(Cl)c(Cl)c(Cl)c3)C2(Cl)Cl)ccc1F` (relative stereo) [F75, trans-5-(2,2-Dichloro-3-(3,4,5-trichlorophenyl)cyclopropane-1-carboxamido)-N-(2,4-difluorophenyl)-2-fluorobenzamide] was tested. Which pest or weed control at 50 µg/cm2 [1] did it give?
A: 50 to 100%

Q: What about the “YFM (Biological Results, rating)” value [2] of the same compound?
A: A (80-100)

Q: What about the pest or weed control at 50 µg/cm2 [3] of the same compound?
A: 50 to 100%

Q: Which pest or weed control at 50 µg/cm2 [1] does the source give for `O=C(Nc1ccc(F)cc1)c1cc(NC(=O)[C@H]2[C@H](c3ccc(C(F)(F)F)cc3)C2(Cl)Cl)ccc1Cl` (relative stereo) [F81, trans-2-Chloro-5-(2,2-dichloro-3-(4-(trifluoromethyl)phenyl)cyclopropane-1-carboxamido)-N-(4-fluorophenyl)benzamide] here?
A: 50 to 100%

Q: And the “YFM (Biological Results, rating)” value [2]?
A: A (80-100)

Q: What about the pest or weed control at 50 µg/cm2 [3] of the same compound?
A: 50 to 100%

Q: How did the pest or weed control at 50 µg/cm2 [1] turn out when `CN(C(=O)c1cc(NC(=O)[C@H]2[C@H](c3ccc(C(F)(F)F)cc3)C2(Cl)Cl)ccc1Cl)c1ccc(F)cc1` (relative stereo) [F82, trans-2-Chloro-5-(2,2-dichloro-3-(4-(trifluoromethyl)phenyl)cyclopropane-1-carboxamido)-N-(4-fluorophenyl)-N-methylbenzamide] was run?
A: 50 to 100%

Q: And the “YFM (Biological Results, rating)” value [2]?
A: B (More than 0-Less than 80)

Q: What about the pest or weed control at 50 µg/cm2 [3] of the same compound?
A: 50 to 100%

Q: Which results are given for `O=C(Nc1c(F)cccc1F)c1cc(NC(=O)[C@H]2[C@H](c3ccc(C(F)(F)F)cc3)C2(Cl)Cl)ccc1Cl` (relative stereo) [F83, trans-2-Chloro-5-(2,2-dichloro-3-(4-(trifluoromethyl)phenyl)cyclopropane-1-carboxamido)-N-(2,6-difluorophenyl)benzamide]?
A: pest or weed control at 50 µg/cm2 [1]: 50 to 100%; YFM (Biological Results, rating) [2]: A (80-100); pest or weed control at 50 µg/cm2 [3]: 50 to 100%

Q: What does the source list for `CN(C(=O)c1cc(NC(=O)[C@H]2[C@H](c3cc(C(F)(F)F)cc(C(F)(F)F)c3)C2(Cl)Cl)ccc1Cl)c1ccc(F)cc1` (relative stereo) [F85, trans-5-(3-(3,5-Bis(trifluoromethyl)phenyl)-2,2-dichlorocyclopropane-1-carboxamido)-2-chloro-N-(4-fluorophenyl)-N-methylbenzamide]?
A: pest or weed control at 50 µg/cm2 [1]: 50 to 100%; YFM (Biological Results, rating) [2]: A (80-100); pest or weed control at 50 µg/cm2 [3]: 50 to 100%

Q: How did the pest or weed control at 50 µg/cm2 [1] turn out when `CN(C(=O)c1cc(NC(=O)[C@H]2[C@H](c3cc(Cl)cc(C(F)(F)F)c3)C2(Cl)Cl)ccc1Cl)c1ccc(F)cc1` (relative stereo) [F88, trans-2-Chloro-5-(2,2-dichloro-3-(3-chloro-5-(trifluoromethyl)phenyl)cyclopropane-1-carboxamido)-N-(4-fluorophenyl)-N-methylbenzamide] was run?
A: 50 to 100%

Q: And the “YFM (Biological Results, rating)” value [2]?
A: B (More than 0-Less than 80)

Q: What about the pest or weed control at 50 µg/cm2 [3] of the same compound?
A: 50 to 100%

Q: For `CN(C(=O)c1cc(NC(=O)[C@H]2[C@H](c3cc(Br)cc(Br)c3)C2(Cl)Cl)ccc1Cl)c1ccc(F)cc1` (relative stereo) [F91, trans-2-Chloro-5-(2,2-dichloro-3-(3,5-dibromophenyl)cyclopropane-1-carboxamido)-N-(4-fluorophenyl)-N-methylbenzamide], which pest or weed control at 50 µg/cm2 [1] is on record?
A: 50 to 100%

Q: And the “YFM (Biological Results, rating)” value [2]?
A: B (More than 0-Less than 80)

Q: And the pest or weed control at 50 µg/cm2 [3]?
A: 50 to 100%

Q: What does the source list for `O=C(Nc1ccc(Cl)c(C(=O)N(CC(F)(F)F)c2ccc(F)cc2)c1)[C@H]1[C@H](c2cc(Cl)cc(Cl)c2)C1(Cl)Cl` (relative stereo) [F100, trans-2-Chloro-5-(2,2-dichloro-3-(3,5-dichlorophenyl)cyclopropane-1-carboxamido)-N-(4-fluorophenyl)-N-(2,2,2-trifluoroethyl)benzamide]?
A: pest or weed control at 50 µg/cm2 [1]: 50 to 100%; YFM (Biological Results, rating) [2]: A (80-100); pest or weed control at 50 µg/cm2 [3]: 50 to 100%

Q: What does the source list for `Cc1cc(Cl)cc([C@H]2[C@H](C(=O)Nc3ccc(Cl)c(C(=O)Nc4ccc(F)cc4)c3)C2(Cl)Cl)c1` (relative stereo) [F116, trans-2-Chloro-5-(2,2-dichloro-3-(3-chloro-5-methylphenyl)cyclopropane-1-carboxamido)-N-(4-fluorophenyl)benzamide]?
A: pest or weed control at 50 µg/cm2 [1]: 50 to 100%; YFM (Biological Results, rating) [2]: A (80-100); pest or weed control at 50 µg/cm2 [3]: 50 to 100%

Q: Which pest or weed control at 50 µg/cm2 [1] does the source give for `Cc1cc(Cl)cc([C@H]2[C@H](C(=O)Nc3ccc(Cl)c(C(=O)Nc4c(F)cccc4F)c3)C2(Cl)Cl)c1` (relative stereo) [F118, trans-2-Chloro-5-(2,2-dichloro-3-(3-chloro-5-methylphenyl)cyclopropane-1-carboxamido)-N-(2,6-difluorophenyl)benzamide] here?
A: 50 to 100%

Q: And the “YFM (Biological Results, rating)” value [2]?
A: A (80-100)

Q: What about the pest or weed control at 50 µg/cm2 [3] of the same compound?
A: 50 to 100%

Q: How did the pest or weed control at 50 µg/cm2 [1] turn out when `O=C(Nc1ccc(F)cc1)c1cc(NC(=O)[C@H]2[C@H](c3cc(Cl)cc(Cl)c3)C2(Br)Br)ccc1Cl` (relative stereo) [F122, trans-2-Chloro-5-(2,2-dibromo-3-(3,5-dichlorophenyl)cyclopropane-1-carboxamido)-N-(4-fluorophenyl)benzamide] was run?
A: 50 to 100%

Q: What about the “YFM (Biological Results, rating)” value [2] of the same compound?
A: B (More than 0-Less than 80)

Q: What about the pest or weed control at 50 µg/cm2 [3] of the same compound?
A: 50 to 100%

Q: Which results are given for `Cc1cc([C@H]2[C@H](C(=O)Nc3ccc(Cl)c(C(=O)Nc4ccc(F)cc4)c3)C2(Cl)Cl)cc(Cl)c1Cl` (relative stereo) [F123, trans-2-Chloro-5-(2,2-dichloro-3-(3,4-dichloro-5-methylphenyl)cyclopropane-1-carboxamido)-N-(4-fluorophenyl)benzamide]?
A: pest or weed control at 50 µg/cm2 [1]: 50 to 100%; YFM (Biological Results, rating) [2]: B (More than 0-Less than 80); pest or weed control at 50 µg/cm2 [3]: 50 to 100%

Q: For `O=C(Nc1ccc(F)cc1)c1cc(NC(=O)[C@H]2[C@H](c3cc(Cl)cc(Cl)c3)C2(Cl)Cl)ccc1OC(F)(F)F` (relative stereo) [F135, trans-5-(2,2-Dichloro-3-(3,5-dichlorophenyl)cyclopropane-1-carboxamido)-N-(4-fluorophenyl)-2-(trifluoromethoxy)benzamide], which pest or weed control at 50 µg/cm2 [1] is on record?
A: 50 to 100%

Q: What about the “YFM (Biological Results, rating)” value [2] of the same compound?
A: A (80-100)

Q: And the pest or weed control at 50 µg/cm2 [3]?
A: 50 to 100%

Q: Which pest or weed control at 50 µg/cm2 [1] does the source give for `O=C(Nc1ccc(F)cc1)c1cc(Cl)cc(NC(=O)[C@H]2[C@H](c3cc(Cl)cc(Cl)c3)C2(Cl)Cl)c1` (relative stereo) [F136, trans-3-Chloro-5-(2,2-dichloro-3-(3,5-dichlorophenyl)cyclopropane-1-carboxamido)-N-(4-fluorophenyl)benzamide] here?
A: 50 to 100%

Q: What about the “YFM (Biological Results, rating)” value [2] of the same compound?
A: A (80-100)

Q: What about the pest or weed control at 50 µg/cm2 [3] of the same compound?
A: 50 to 100%

Q: Which pest or weed control at 50 µg/cm2 [1] does the source give for `O=C(Nc1c(F)cccc1F)c1cc(NC(=O)[C@H]2[C@H](c3ccc(F)c(Cl)c3)C2(Cl)Cl)ccc1Cl` (relative stereo) [F161, trans-2-Chloro-5-(2,2-dichloro-3-(3-chloro-4-fluorophenyl)cyclopropane-1-carboxamido)-N-(2,6-difluorophenyl)benzamide] here?
A: 50 to 100%

Q: What about the “YFM (Biological Results, rating)” value [2] of the same compound?
A: A (80-100)

Q: And the pest or weed control at 50 µg/cm2 [3]?
A: 50 to 100%

Q: What does the source list for `O=C(Nc1c(F)cccc1F)c1cc(NC(=O)[C@H]2[C@H](c3cc(Cl)cc(Br)c3)C2(Cl)Cl)ccc1Cl` (relative stereo) [F164, trans-5-(3-(3-Bromo-5-chlorophenyl)-2,2-dichlorocyclopropane-1-carboxamido)-2-chloro-N-(2,6-difluorophenyl)benzamide]?
A: pest or weed control at 50 µg/cm2 [1]: 50 to 100%; YFM (Biological Results, rating) [2]: A (80-100); pest or weed control at 50 µg/cm2 [3]: 50 to 100%

Q: With `CN(C)c1ccc(NC(=O)c2cc(NC(=O)[C@H]3[C@H](c4cc(Cl)cc(Cl)c4)C3(Cl)Cl)ccc2Cl)cc1` (relative stereo) [F171, trans-2-Chloro-5-(2,2-dichloro-3-(3,5-dichlorophenyl)cyclopropane-1-carboxamido)-N-(4-(dimethylamino)phenyl)benzamide] as the compound, how does the pest or weed control at 50 µg/cm2 [1] read?
A: 50 to 100%

Q: And the “YFM (Biological Results, rating)” value [2]?
A: A (80-100)

Q: And the pest or weed control at 50 µg/cm2 [3]?
A: 50 to 100%

Q: With `Nc1ccc(NC(=O)c2cc(NC(=O)[C@H]3[C@H](c4cc(Cl)cc(Cl)c4)C3(Cl)Cl)ccc2Cl)cc1F` (relative stereo) [F174, trans-N-(4-Amino-3-fluorophenyl)-2-chloro-5-(2,2-dichloro-3-(3,5-dichlorophenyl)cyclopropane-1-carboxamido)benzamide] as the compound, how does the pest or weed control at 50 µg/cm2 [1] read?
A: 50 to 100%

Q: What about the “YFM (Biological Results, rating)” value [2] of the same compound?
A: A (80-100)

Q: And the pest or weed control at 50 µg/cm2 [3]?
A: 50 to 100%

Q: What does the source list for `Nc1ccc(NC(=O)c2cc(NC(=O)[C@H]3[C@H](c4cc(Cl)cc(Cl)c4)C3(Cl)Cl)ccc2Cl)c(F)c1` (relative stereo) [F175, trans-N-(4-amino-2-fluorophenyl)-2-chloro-5-(2,2-dichloro-3-(3,5-dichlorophenyl)cyclopropane-1-carboxamido)benzamide]?
A: pest or weed control at 50 µg/cm2 [1]: 50 to 100%; YFM (Biological Results, rating) [2]: A (80-100); pest or weed control at 50 µg/cm2 [3]: 50 to 100%
